Values of other authors as cited in US20250000791A1, “OPHTHALMIC FORMULATION FOR PREVENTING AND/OR TREATING CATARACTS BY EYE DROP ADMINISTRATION” (CHENGDU RUIMU BIOPHARMACEUTICALS CO., LTD., priority 2021, published 2025).
Read-outs that look alike come from different tables or passages of the source.

How the values were obtained:
[1] = system: cataract nucleus obtained after cataract extraction; details: 25 mM lanosterol solution, 6 days
crystallins = details: lens fragments of cataract patients; lanosterol 0.20 mM, 25-HC 0.25 and 0.50 mM, 37° C., 72 h
[2] = 0.5% LAN solution with 15% DMSO, 20% ethanol or polysorbate 80, injected into the vitreous body of rats

Structure (SMILES)	effect on cataract (animal cataract model; administration by eye drops alone)	effect on cataract (animal cataract model; nanoparticles into the vitreous cavity once every 3 days combined with 25 mM eye drops six times a week, 6 weeks)	cataract clarity [1]	binding to crystallins / solving cataract (crystallins)	solubility in water	effect on lens opacity [2]	effect on the vitreous body [2]
CC(C)=CCC[C@@H](C)[C@H]1CC[C@@]2(C)C3=C(CC[C@]12C)[C@@]1(C)CC[C@H](O)C(C)(C)[C@@H]1CC3 [lanosterol]	cannot treat cataracts	the cataract disappeared	no significant improvement in cataract clarity	did not find that lanosterol or 25-hydroxycholesterol can bind to crystallins	low solubility in water	poses a risk of promoting lens opacity	causes vitreous turbidness
C[C@H](CCCC(C)(C)O)[C@H]1CC[C@H]2[C@@H]3CC=C4C[C@@H](O)CC[C@]4(C)[C@H]3CC[C@]12C [25-hydroxycholesterol]				did not find that lanosterol or 25-hydroxycholesterol can bind to crystallins			
